Measured values: patent publication US20200206257A1, “HOMOGENEOUS POLY[…]-B4, DERIVED FROM HERBA EPHEDRA, PREPARATION METHOD AND MEDICAL USE THEREOF” (priority 2018, published 2020)
“And” between values parts separate entries of the source, which are not always exact repeats. Identical values can stand only once.

What was measured:
[1] = system: LPS-induced acute lung injury in mice; assay: LPS-induced acute lung injury in mice, inflammatory factors in lung tissue homogenate; assay type: in vivo; details: 50 mg/kg intraperitoneal, 7 days, left lung homogenate, mean±SD
[2] = system: Escherichia coli-induced pneumonia in mice; assay: Escherichia coli-induced pneumonia in mice, inflammatory factors in lung tissue homogenate; assay type: in vivo; details: 100 mg/kg intragastric (positive control), 7 days, left lung homogenate, mean±SD

| Molecule | IL-6 [1] [pg/mL] | IL-8 [1] [pg/mL] | TNF-α [1] [pg/mL] | Tp (Total protein) [1] [µg/mL] | IL-6 [2] [pg/mL] | IL-8 [2] [pg/mL] | TNF-α [2] [pg/mL] | Tp [2] | IL-6 ([2]; listed as gentamicin sulfate) | IL-8 ([2]; listed as gentamicin sulfate) | TNF-α ([2]; listed as gentamicin sulfate) |
| --- | --- | --- | --- | --- | --- | --- | --- | --- | --- | --- | --- |
| C[C@@H]1C[C@H]2[C@@H]3CCC4=CC(=O)C=C[C@]4(C)[C@@]3(F)[C@@H](O)C[C@]2(C)[C@@]1(O)C(=O)CO [Dexamethasone, dexamethasone] | 255.18 ± 35.63 | 52.7 ± 9.99 | 861.41 ± 71.04 | 202.40 ± 16.54 | – | – | – | – | – | – | – |
| gentamicin sulfate [Gentamycin Sulfate] | – | – | – | – | 285.16 ± 32.71 | 49.36 ± 10.01 | 834.10 ± 70.10 | significantly decreased and 197.05 ± 14.20 μg/mL | significantly decreased | significantly decreased | significantly decreased |
